Test results taken from ChEMBL document CHEMBL1149993, “Simple cis-epoxide-based inhibitors of HIV-1 protease” (Bioorg Med Chem Lett, 1997).

Tests used:
[1] = biological target: Human immunodeficiency virus type 1 protease (Human immunodeficiency virus 1) (UniProt Q72874); experiment: The compound was evaluated for irreversible inhibition of HIV-1 protease at 20 uM
[2] = biological target: Human immunodeficiency virus type 1 protease (Human immunodeficiency virus 1) (UniProt Q72874); experiment: The compound was evaluated for irreversible inhibition of HIV-1 protease
[3] = biological target: Human immunodeficiency virus type 1 protease (Human immunodeficiency virus 1) (UniProt Q72874); experiment: The compound was evaluated for irreversible inhibition of HIV-1 protease at pH 6.5
[4] = biological target: Human immunodeficiency virus type 1 protease (Human immunodeficiency virus 1) (UniProt Q72874); experiment: Maximal inactivation rate towards HIV-1 protease was evaluated
[5] = Bimolecular rate constant is the ratio of Vinact/Kinact

inhibition [1] [%] | K inact [2] [µM] | SMILES | further results
25 | – | CC(C)C(NC(=O)OCc1ccccc1)C(=O)NC(C(=O)OC[C@@H]1O[C@@H]1COc1ccc([N+](=O)[O-])cc1)C(C)C (some centres not stated) | –
19 | – | COC(=O)C(CC(C)C)NC(=O)[C@@H]1O[C@@H]1CCc1ccccc1 (some centres not stated) | –
– | 11000 | O=[N+]([O-])c1ccc(OCC2CO2)cc1 (configuration not stated) | –
22 | – | COC(=O)C(NC(=O)[C@@H]1O[C@@H]1COc1ccc([N+](=O)[O-])cc1)C(C)C (some centres not stated) | –
30 | – | COC(=O)C(CC(C)C)NC(=O)[C@@H]1O[C@@H]1COc1ccc([N+](=O)[O-])cc1 (some centres not stated) | –
– | 0.075 | CC(C)C(NC(=O)OCc1ccccc1)C(=O)N[C@@H](Cc1ccccc1)[C@@H]1O[C@@H]1[C@H](Cc1ccccc1)NC(=O)C(NC(=O)OCc1ccccc1)C(C)C (some centres not stated) | –
– | 65 | O=C(OCC1c2ccccc2-c2ccccc21)N1CCC2OC2C1 (configuration not stated) | –
– | 20 | CC(C)C[C@@H]1O[C@@H]1[C@H](Cc1ccccc1)NC(=O)[C@H](C)NC(=O)[C@H](Cc1ccccc1)NC(=O)OCc1ccccc1 | –
88 | – | CC(C)C(NC(=O)OCc1ccccc1)C(=O)OC[C@@H]1O[C@@H]1COc1ccc([N+](=O)[O-])cc1 (some centres not stated) | K inact [3]: 1.8 µM; Vinact [4]: 0.26 min⁻¹; Ratio [5]: 140000 M⁻¹ min⁻¹
